Experimental data taken from ChEMBL document CHEMBL5154652, “Design, synthesis and anti-hepatocellular carcinoma activity of 3-arylisoquinoline alkaloids” (Eur J Med Chem, 2022).

system: HepG2; test: Antiproliferative activity against human HepG2 cells after 72 hrs by MTT assay; format: functional, cell-based; conditions: HepG2, 72 h

SMILES	IC50 [µM]
COCCc1cc(OC)c(OC)cc1-c1cc2ccc3c(c2cn1)OCO3	> 150
CNCCCc1cc2c(cc1-c1cc3ccc4c(c3cn1)OCO4)OCO2	35.7
CCOC(=O)N(C)CCc1cc2c(cc1-c1cc3ccc4c(c3cn1)OCO4)OCO2	27.3
CNCCc1cc2c(cc1-c1cc3ccc4c(c3cn1)OCO4)OCO2	45

system: HT-29; test: Antiproliferative activity against human HT-29 cells after 72 hrs by MTT assay; format: functional, cell-based; conditions: HT-29, 72 h

SMILES	IC50 [µM]
COCCc1cc(OC)c(OC)cc1-c1cc2ccc3c(c2cn1)OCO3	> 150
CNCCCc1cc2c(cc1-c1cc3ccc4c(c3cn1)OCO4)OCO2	41.1
CCOC(=O)N(C)CCc1cc2c(cc1-c1cc3ccc4c(c3cn1)OCO4)OCO2	96.6
CNCCc1cc2c(cc1-c1cc3ccc4c(c3cn1)OCO4)OCO2	23

system: BGC-823; test: Antiproliferative activity against human BGC-823 cells after 72 hrs by MTT assay; format: functional, cell-based; conditions: BGC-823, 72 h

SMILES	IC50 [µM]
COCCc1cc(OC)c(OC)cc1-c1cc2ccc3c(c2cn1)OCO3	> 150
CNCCCc1cc2c(cc1-c1cc3ccc4c(c3cn1)OCO4)OCO2	44.9
CCOC(=O)N(C)CCc1cc2c(cc1-c1cc3ccc4c(c3cn1)OCO4)OCO2	49.9
CNCCc1cc2c(cc1-c1cc3ccc4c(c3cn1)OCO4)OCO2	25.9

system: SGC-7901; test: Antiproliferative activity against human SGC-7901 cells after 72 hrs by MTT assay; format: functional, cell-based; conditions: SGC-7901, 72 h

SMILES	IC50 [µM]
COCCc1cc(OC)c(OC)cc1-c1cc2ccc3c(c2cn1)OCO3	> 150
CNCCCc1cc2c(cc1-c1cc3ccc4c(c3cn1)OCO4)OCO2	41.6
CCOC(=O)N(C)CCc1cc2c(cc1-c1cc3ccc4c(c3cn1)OCO4)OCO2	28.8

system: HGC-27; test: Antiproliferative activity against human HGC-27 cells after 72 hrs by MTT assay; format: functional, cell-based; conditions: HGC-27, 72 h

SMILES	IC50 [µM]
COCCc1cc(OC)c(OC)cc1-c1cc2ccc3c(c2cn1)OCO3	120
CNCCCc1cc2c(cc1-c1cc3ccc4c(c3cn1)OCO4)OCO2	73.2
CCOC(=O)N(C)CCc1cc2c(cc1-c1cc3ccc4c(c3cn1)OCO4)OCO2	99.8
CNCCc1cc2c(cc1-c1cc3ccc4c(c3cn1)OCO4)OCO2	20.9

system: U-251; test: Antiproliferative activity against human U-251 cells after 72 hrs by MTT assay; format: functional, cell-based; conditions: U-251, 72 h

SMILES	IC50 [µM]
COCCc1cc(OC)c(OC)cc1-c1cc2ccc3c(c2cn1)OCO3	> 150
CNCCCc1cc2c(cc1-c1cc3ccc4c(c3cn1)OCO4)OCO2	27.7
CCOC(=O)N(C)CCc1cc2c(cc1-c1cc3ccc4c(c3cn1)OCO4)OCO2	51.8
CNCCc1cc2c(cc1-c1cc3ccc4c(c3cn1)OCO4)OCO2	19.1

system: RKO; test: Antiproliferative activity against human RKO cells after 72 hrs by MTT assay; format: functional, cell-based; conditions: not given

SMILES	IC50 [µM]
COCCc1cc(OC)c(OC)cc1-c1cc2ccc3c(c2cn1)OCO3	> 150
CNCCCc1cc2c(cc1-c1cc3ccc4c(c3cn1)OCO4)OCO2	106
CCOC(=O)N(C)CCc1cc2c(cc1-c1cc3ccc4c(c3cn1)OCO4)OCO2	91.6
CNCCc1cc2c(cc1-c1cc3ccc4c(c3cn1)OCO4)OCO2	63.5

system: HCT-116; test: Antiproliferative activity against human HCT-116 cells after 72 hrs by MTT assay; format: functional, cell-based; conditions: HCT-116, 72 h

SMILES	IC50 [µM]
COCCc1cc(OC)c(OC)cc1-c1cc2ccc3c(c2cn1)OCO3	> 150
CNCCCc1cc2c(cc1-c1cc3ccc4c(c3cn1)OCO4)OCO2	80.9
CCOC(=O)N(C)CCc1cc2c(cc1-c1cc3ccc4c(c3cn1)OCO4)OCO2	> 150
CNCCc1cc2c(cc1-c1cc3ccc4c(c3cn1)OCO4)OCO2	> 150

system: MCF7; test: Antiproliferative activity against human MCF7 cells after 72 hrs by MTT assay; format: functional, cell-based; conditions: MCF7, 72 h

SMILES	IC50 [µM]
COCCc1cc(OC)c(OC)cc1-c1cc2ccc3c(c2cn1)OCO3	32.4
CNCCCc1cc2c(cc1-c1cc3ccc4c(c3cn1)OCO4)OCO2	42.8
CCOC(=O)N(C)CCc1cc2c(cc1-c1cc3ccc4c(c3cn1)OCO4)OCO2	69.7
CNCCc1cc2c(cc1-c1cc3ccc4c(c3cn1)OCO4)OCO2	49.9

system: A549; test: Antiproliferative activity against human A549 cells after 72 hrs by MTT assay; format: functional, cell-based; conditions: A549, 72 h

SMILES	IC50 [µM]
COCCc1cc(OC)c(OC)cc1-c1cc2ccc3c(c2cn1)OCO3	> 150
CNCCCc1cc2c(cc1-c1cc3ccc4c(c3cn1)OCO4)OCO2	52.1
CCOC(=O)N(C)CCc1cc2c(cc1-c1cc3ccc4c(c3cn1)OCO4)OCO2	> 150

system: MDA-MB-231; test: Antiproliferative activity against human MDA-MB-231 cells after 72 hrs by MTT assay; format: functional, cell-based; conditions: MDA-MB-231, 72 h

SMILES	IC50 [µM]
COCCc1cc(OC)c(OC)cc1-c1cc2ccc3c(c2cn1)OCO3	128
CNCCCc1cc2c(cc1-c1cc3ccc4c(c3cn1)OCO4)OCO2	39.5
CCOC(=O)N(C)CCc1cc2c(cc1-c1cc3ccc4c(c3cn1)OCO4)OCO2	36.7
CNCCc1cc2c(cc1-c1cc3ccc4c(c3cn1)OCO4)OCO2	19.3

system: HL-60; test: Antiproliferative activity against human HL-60 cells after 72 hrs by MTT assay; format: functional, cell-based; conditions: HL-60, 72 h

SMILES	IC50 [µM]
COCCc1cc(OC)c(OC)cc1-c1cc2ccc3c(c2cn1)OCO3	> 150
CNCCCc1cc2c(cc1-c1cc3ccc4c(c3cn1)OCO4)OCO2	> 150
CCOC(=O)N(C)CCc1cc2c(cc1-c1cc3ccc4c(c3cn1)OCO4)OCO2	> 150
CNCCc1cc2c(cc1-c1cc3ccc4c(c3cn1)OCO4)OCO2	113

system: Huh-7; test: Antiproliferative activity against human Huh-7 cells after 72 hrs by MTT assay; format: functional, cell-based; conditions: Huh-7, 72 h

SMILES	IC50 [µM]
COCCc1cc(OC)c(OC)cc1-c1cc2ccc3c(c2cn1)OCO3	77
CNCCCc1cc2c(cc1-c1cc3ccc4c(c3cn1)OCO4)OCO2	19
CCOC(=O)N(C)CCc1cc2c(cc1-c1cc3ccc4c(c3cn1)OCO4)OCO2	19.2
CNCCc1cc2c(cc1-c1cc3ccc4c(c3cn1)OCO4)OCO2	15.5

system: L02; test: Antiproliferative activity against human L02 cells after 72 hrs by MTT assay; format: functional, cell-based; conditions: L02, 72 h

SMILES	IC50 [µM]
COCCc1cc(OC)c(OC)cc1-c1cc2ccc3c(c2cn1)OCO3	> 150
CNCCCc1cc2c(cc1-c1cc3ccc4c(c3cn1)OCO4)OCO2	90.4
CCOC(=O)N(C)CCc1cc2c(cc1-c1cc3ccc4c(c3cn1)OCO4)OCO2	149
CNCCc1cc2c(cc1-c1cc3ccc4c(c3cn1)OCO4)OCO2	> 150

system: SK-HEP1; test: Antiproliferative activity against human SK-HEP1 cells after 72 hrs by MTT assay; format: functional, cell-based; conditions: SK-HEP1, 72 h

SMILES	IC50 [µM]
CNCCCc1cc2c(cc1-c1cc3ccc4c(c3cn1)OCO4)OCO2	22.2
CCOC(=O)N(C)CCc1cc2c(cc1-c1cc3ccc4c(c3cn1)OCO4)OCO2	103
CNCCc1cc2c(cc1-c1cc3ccc4c(c3cn1)OCO4)OCO2	28.2

system: SW480; test: Antiproliferative activity against human SW480 cells after 72 hrs by MTT assay; format: functional, cell-based; conditions: SW480, 72 h

SMILES	IC50 [µM]
COCCc1cc(OC)c(OC)cc1-c1cc2ccc3c(c2cn1)OCO3	105
CNCCCc1cc2c(cc1-c1cc3ccc4c(c3cn1)OCO4)OCO2	29.4
CCOC(=O)N(C)CCc1cc2c(cc1-c1cc3ccc4c(c3cn1)OCO4)OCO2	28.6
CNCCc1cc2c(cc1-c1cc3ccc4c(c3cn1)OCO4)OCO2	25.4

system: HCCLM9; test: Antiproliferative activity against human HCCLM9 cells after 72 hrs by MTT assay; format: functional, cell-based; conditions: HCCLM9, 72 h

SMILES	IC50 [µM]
COCCc1cc(OC)c(OC)cc1-c1cc2ccc3c(c2cn1)OCO3	> 150
CNCCCc1cc2c(cc1-c1cc3ccc4c(c3cn1)OCO4)OCO2	20.4
CCOC(=O)N(C)CCc1cc2c(cc1-c1cc3ccc4c(c3cn1)OCO4)OCO2	25.1
CNCCc1cc2c(cc1-c1cc3ccc4c(c3cn1)OCO4)OCO2	10
